PubChem BioAssay AID248 (DTP/NCI, 2004)
Values joined by “and” are separate entries in the source; they are usually repeats but may differ in a detail not shown here. Equal values may be shown once. Toxic doses and inconclusive results are not listed. Rule as the data show it: active = T/C of 150% or more; inactive = T/C below 125%.

System: L1210 leukemia ip in BDF1 mice, survival T/C
Assay: NCI In Vivo Anticancer Drug Screen. Data for tumor model L1210 Leukemia (intraperitoneal) in B6D2F1 (BDF1) mice
Settings: endpoint: mean survival time, higher = longer survival
Procedure: The antitumor activity of compounds was measured in mice bearing transplantable tumors. Survival or tumor size were measured and the results are expressed as the measurement made in the treated group (T) divided by the measurement made in the vehicle treated control group (C). The tumor model used in this assay is L1210 Leukemia (intraperitoneal) in B6D2F1 (BDF1) mice

[1] = dose: 100.0 mg/kg/injection, schedule: Q04DX003 (ip), vehicle: carboxymethylcellulose (CMC)
[2] = dose: 200.0 mg/kg/injection, schedule: Q04DX003 (ip), vehicle: carboxymethylcellulose (CMC)
[3] = dose: 100.0 mg/kg/injection, schedule: Q01DX009 (ip), vehicle: Klucel (hydroxypropylcellulose) (HPC)
[4] = dose: 100.0 mg/kg/injection, schedule: Q04DX003 (ip), vehicle: Klucel (hydroxypropylcellulose) (HPC)
[5] = dose: 200.0 mg/kg/injection, schedule: Q01DX009 (ip), vehicle: Klucel (hydroxypropylcellulose) (HPC)
[6] = dose: 200.0 mg/kg/injection, schedule: Q04DX003 (ip), vehicle: Klucel (hydroxypropylcellulose) (HPC)
[7] = dose: 400.0 mg/kg/injection, schedule: Q01DX009 (ip), vehicle: Klucel (hydroxypropylcellulose) (HPC)
[8] = dose: 400.0 mg/kg/injection, schedule: Q04DX003 (ip), vehicle: Klucel (hydroxypropylcellulose) (HPC)
[9] = dose: 50.0 mg/kg/injection, schedule: Q01DX009 (ip), vehicle: Klucel (hydroxypropylcellulose) (HPC)
[10] = dose: 100.0 mg/kg/injection, schedule: Q04DX003 (ip), vehicle: saline with Tween-80
[11] = dose: 100.0 mg/kg/injection, schedule: Q01DX009 (ip), vehicle: saline
[12] = dose: 200.0 mg/kg/injection, schedule: Q01DX009 (ip), vehicle: saline

Measured: T/C

CNC(=O)NC1CCCCC1
inactive: dose: 100.0 mg/kg/injection, schedule: Q01DX001 (ip), vehicle: carboxymethylcellulose (CMC) 106 % of control | dose: 100.0 mg/kg/injection, schedule: Q01DX009 (ip), vehicle: carboxymethylcellulose (CMC) 92 % of control and 98 % of control | dose: 100.0 mg/kg/injection, schedule: Q04DX002 (ip), vehicle: carboxymethylcellulose (CMC) 97 % of control | [1] 100 % of control | dose: 200.0 mg/kg/injection, schedule: Q01DX001 (ip), vehicle: carboxymethylcellulose (CMC) 103 % of control | dose: 200.0 mg/kg/injection, schedule: Q01DX009 (ip), vehicle: carboxymethylcellulose (CMC) 95 % of control and 96 % of control | dose: 200.0 mg/kg/injection, schedule: Q04DX002 (ip), vehicle: carboxymethylcellulose (CMC) 89 % of control | [2] 97 % of control | dose: 400.0 mg/kg/injection, schedule: Q01DX001 (ip), vehicle: carboxymethylcellulose (CMC) 106 % of control | dose: 400.0 mg/kg/injection, schedule: Q01DX009 (ip), vehicle: carboxymethylcellulose (CMC) 101 % of control | dose: 400.0 mg/kg/injection, schedule: Q04DX002 (ip), vehicle: carboxymethylcellulose (CMC) 100 % of control | dose: 400.0 mg/kg/injection, schedule: Q04DX003 (ip), vehicle: carboxymethylcellulose (CMC) 100 % of control

C1C2OC2CC2OC12 (stereo not given)
inactive: dose: 100.0 mg/kg/injection, schedule: Q01DX009 (ip), vehicle: saline with Tween-80 95 % of control | dose: 200.0 mg/kg/injection, schedule: Q01DX009 (ip), vehicle: saline with Tween-80 96 % of control | dose: 400.0 mg/kg/injection, schedule: Q01DX009 (ip), vehicle: saline with Tween-80 95 % of control

N#CC1(C(N)=O)OC1c1ccccc1Cl (stereo not given)
inactive: [1] 97 % of control | [2] 98 % of control

CCCCOc1ccc(OC(=O)Nc2cc(Cl)ccc2OC)cc1
inactive: [3] 105 % of control | [4] 96 % of control | [5] 97 % of control | [6] 97 % of control | [7] 113 % of control | [8] 97 % of control

O=C(NC(=S)Nc1cccc2ccccc12)c1ccccc1F
inactive: dose: 100.0 mg/kg/injection, schedule: Q04DX002 (ip), vehicle: saline 102 % of control | dose: 200.0 mg/kg/injection, schedule: Q04DX002 (ip), vehicle: saline 88 % of control | dose: 400.0 mg/kg/injection, schedule: Q04DX002 (ip), vehicle: saline 102 % of control

O=C(O)c1cnc(C(=O)O)cn1
inactive: [9] 98 % of control | [3] 87 % of control | [5] 91 % of control

CC(=O)C(CCS(C)(=O)=O)(CCS(C)(=O)=O)C(=O)O
inactive: [4] 107 % of control | [6] 94 % of control | [8] 103 % of control

O=S(=O)(n1ccnc1)C(F)(F)F
inactive: dose: 5.0 mg/kg/injection, schedule: Q01DX001 (ip), vehicle: saline 102 % of control | dose: 10.0 mg/kg/injection, schedule: Q01DX001 (ip), vehicle: saline 98 % of control | dose: 20.0 mg/kg/injection, schedule: Q01DX001 (ip), vehicle: saline 102 % of control | dose: 40.0 mg/kg/injection, schedule: Q01DX001 (ip), vehicle: saline 102 % of control

Cn1c(=O)c2ncn(CC(O)COc3ccccc3)c2n(C)c1=O (stereo not given)
inactive: [4] 102 % of control | [6] 104 % of control | [8] 101 % of control

Cc1ccc(-n2c(=S)[nH]c3ccc(C)cc3c2=O)cc1
inactive: dose: 25.0 mg/kg/injection, schedule: Q01DX009 (ip), vehicle: saline with Tween-80 87 % of control | [10] 87 % of control

CN1CCc2ccc(O)cc2C1
inactive: dose: 100.0 mg/kg/injection, schedule: Q04DX003 (ip), vehicle: saline 95 % of control | dose: 200.0 mg/kg/injection, schedule: Q04DX003 (ip), vehicle: saline 95 % of control

O=C1CCC2(CCC(=O)O2)O1
inactive: dose: 50.0 mg/kg/injection, schedule: Q01DX009 (ip), vehicle: saline 100 % of control | [11] 100 % of control | [12] 92 % of control

C=CC1(C)CCC(=O)N1 (stereo not given)
inactive: dose: 75.0 mg/kg/injection, schedule: Q04DX003 (ip), vehicle: other 104 % of control | dose: 150.0 mg/kg/injection, schedule: Q04DX003 (ip), vehicle: other 98 % of control | dose: 300.0 mg/kg/injection, schedule: Q04DX003 (ip), vehicle: other 98 % of control

COc1ccc(/C=C\C(=O)/C=C/c2ccc(OC)cc2)cc1
inactive: [3] 98 % of control | [4] 94 % of control | [5] 98 % of control | [6] 94 % of control | [7] 88 % of control | [8] 100 % of control

O=C1C2=C(NC1(c1ccccc1)c1ccccc1)c1ccccc1C2
inactive: [9] 101 % of control | [3] 105 % of control | [5] 97 % of control

O=S1(=O)CCN(c2ccccc2CC(c2c[nH]c3ccccc23)c2c[nH]c3ccccc23)CC1
inactive: dose: 100.0 mg/kg/injection, schedule: Q01DX001 (ip), vehicle: saline 89 % of control | dose: 200.0 mg/kg/injection, schedule: Q01DX001 (ip), vehicle: saline 86 % of control

CCOC(=O)c1ccc(NC(=O)CCCCCCCCC(=O)Nc2ccc(C(=O)OCC)cc2)cc1
inactive: dose: 100.0 mg/kg/injection, schedule: Q04DX002 (ip), vehicle: Klucel (hydroxypropylcellulose) (HPC) 91 % of control | dose: 200.0 mg/kg/injection, schedule: Q04DX002 (ip), vehicle: Klucel (hydroxypropylcellulose) (HPC) 102 % of control | dose: 400.0 mg/kg/injection, schedule: Q04DX002 (ip), vehicle: Klucel (hydroxypropylcellulose) (HPC) 95 % of control

CCOC(=O)c1c[nH]c2ccc([N+](=O)[O-])cc2c1=O
inactive: dose: 25.0 mg/kg/injection, schedule: Q01DX001 (ip), vehicle: Klucel (hydroxypropylcellulose) (HPC) 97 % of control | dose: 50.0 mg/kg/injection, schedule: Q01DX001 (ip), vehicle: Klucel (hydroxypropylcellulose) (HPC) 97 % of control | dose: 100.0 mg/kg/injection, schedule: Q01DX001 (ip), vehicle: Klucel (hydroxypropylcellulose) (HPC) 97 % of control

CC1(C#N)CC(C#N)Nc2ccccc2N1 (stereo not given)
inactive: [11] 104 % of control | [12] 98 % of control

N#CC(CCO)(CCO)c1ccccc1
inactive: [3] 101 % of control | [5] 97 % of control | [7] 105 % of control

Cc1ccc2cc3c(ccc4ccccc43)c3c2c1CC3
inactive: [10] 119 % of control | dose: 200.0 mg/kg/injection, schedule: Q04DX003 (ip), vehicle: saline with Tween-80 120 % of control | dose: 400.0 mg/kg/injection, schedule: Q04DX003 (ip), vehicle: saline with Tween-80 120 % of control

OC1(C2CCC(C(F)(F)F)CC2)C2C=CC1CC2 (stereo not given)
inactive: dose: 75.0 mg/kg/injection, schedule: Q04DX002 (ip), vehicle: Klucel (hydroxypropylcellulose) (HPC) 93 % of control | dose: 150.0 mg/kg/injection, schedule: Q04DX002 (ip), vehicle: Klucel (hydroxypropylcellulose) (HPC) 93 % of control | dose: 300.0 mg/kg/injection, schedule: Q04DX002 (ip), vehicle: Klucel (hydroxypropylcellulose) (HPC) 100 % of control

O=c1cc(CO)occ1O.O=c1cc(CO)occ1O.[O]=[V]
inactive: dose: 4.0 mg/kg/injection, schedule: Q01DX015 (ip), vehicle: carboxymethylcellulose (CMC) 101 % of control | dose: 8.0 mg/kg/injection, schedule: Q01DX015 (ip), vehicle: carboxymethylcellulose (CMC) 105 % of control | dose: 12.5 mg/kg/injection, schedule: Q01DX009 (ip), vehicle: saline 87 % of control | dose: 12.5 mg/kg/injection, schedule: Q04DX003 (ip), vehicle: saline 92 % of control | dose: 16.0 mg/kg/injection, schedule: Q01DX015 (ip), vehicle: carboxymethylcellulose (CMC) 106 % of control | dose: 25.0 mg/kg/injection, schedule: Q01DX009 (ip), vehicle: saline 92 % of control | dose: 25.0 mg/kg/injection, schedule: Q04DX003 (ip), vehicle: saline 91 % of control | dose: 50.0 mg/kg/injection, schedule: Q04DX003 (ip), vehicle: saline 102 % of control

Nc1nc(N)[n+]([O-])c(N)c1NCO
inactive: dose: 88.0 mg/kg/injection, schedule: Q01DX001 (ip), vehicle: other 101 % of control | dose: 100.0 mg/kg/injection, schedule: Q01DX001 (ip), vehicle: other 97 % of control | dose: 133.0 mg/kg/injection, schedule: Q01DX001 (ip), vehicle: other 103 % of control | dose: 300.0 mg/kg/injection, schedule: Q01DX001 (ip), vehicle: other 103 % of control | dose: 400.0 mg/kg/injection, schedule: Q01DX001 (ip), vehicle: other 94 % of control
